Experimental data from patent publication US12410152B2, “Oxazole and thioazole-type cullin ring ubiquitin ligase compounds and uses thereof” (Proxygen GmbH, priority 2019, dated 2025).

Test system: KBM7 WT cells (global proteome)
Assay: Quantitative expression proteomics (TMT isobaric tagging), drug vs DMSO
Format: cell-based, human
Description: The mechanism by which the assayed molecules re-program a functional CRL4B complex based on the data shown could be that drug binding to CUL4B recruits a neo-substrate directly to the cullin backbone. Alternatively, drug binding could stabilize CUL4B function to boost time intervals where a functionally competent CUL4B complexes can be formed. Here, the word “functional” implies that the CUL4B backbone of this complex needs to be neddylated, and a CUL4B associated E2 ubiquitin-conjugating enzyme (UBE2G1) needs to be bound. FIG. 9 outlines one possible mechanism. Both predicted mechanisms of action would result in a functionally altered CRL4B complex, and thus an altered stability of drug-induced (neo-) substrates. In order to identify target proteins with a decreased abundance or, in other words, target proteins that become degraded by CRL4B after drug treatment, global proteome composition was measured using quantitative expression proteomics (TMT-labeling). In brief, KBM7 cells were drug treated for 12 hours, lysed, and subjected to isobaric tagging. Ensuing proteomics analysis quantified a total of 7,903 proteins at a minimum spectral count of 2. […] Data on essentiality are taken from Hart et al., G3, August 2017 (PMID: 28655737).
50×10^6 KBM7^WT cells per condition were collected, washed four times with ice-cold PBS, the supernatant aspirated and pellets snap-frozen in liquid N2. Each washed cell pellet was lysed separately in 40 μL of freshly prepared lysis buffer as previously described (see Mayor-Ruiz et al., Mol Cell 2019)
Offline Fractionation via RP-HPLC at high pH and 2D-RP/RP Liquid Chromatography Mass Spectrometry were performed as previously described (see Mayor-Ruiz et al., Mol Cell 2019).
Acquired raw data files were processed using the Proteome Discoverer 2.2.0 platform, utilizing the Sequest HT database search engine and Percolator validation software node (V3.04) to remove false positives with a false discovery rate (FDR) of 1% on peptide and protein level under strict conditions. Searches were performed with full tryptic digestion against the human SwissProt database v2017.06 with up to two allowed miscleavage sites. Oxidation (+15.9949 Da) of methionine was set as variable modification, whilst carbamidomethylation (+57.0214 Da) of cysteine residues and TMT 6-plex labelling of peptide N-termini and lysine residues were set as fixed modifications. Data was searched with mass tolerances of ±10 ppm and ±0.02 Da on the precursor and fragment ions, respectively. Results were filtered to include peptide spectrum matches (PSMs) with Sequest HT cross-correlation factor (Xcorr) scores of […] and high peptide confidence assigned by Percolator. MS^2 signal-to-noise values (S/N) values of TMT reporter ions were used to estimate peptide/protein abundance changes. PSMs with precursor isolation interference values of ≥ 50% and average TMT-reporter ion S/N≤10 were excluded from quantitation. Only unique peptides were used for TMT quantitation as well as for TOP3 label-free quantitation. Isotopic impurity correction and TMT channel-normalization based on total peptide amount were applied. For statistical analysis and p-value calculation, the integrated ANOVA hypothesis test was used. TMT ratios with p-values below 0.01 were considered as significant. Only proteins with >1 peptide detected and >1 unique peptide detected were considered for further analysis. For the calling of destabilized proteins, a log 2 fold change threshold (drug/DMSO) of −0.3 was applied.
Comparison of overall proteome-wide changes in KBM7 cells treated with IC020772.1 (2.5 μM), IC021313.2 (7 μM) or T6938051 (3.5 μM) for 5 h and 12h, using quantitative proteomics based on isobaric tagging.
The protein names in Table 4, Table 5 and Table 6 refer to the protein names as provided by HUGO Gene Nomenclature Committee (HGNC) database. […]

Structure (SMILES): O=C(CSc1nnc2c(n1)[nH]c1ccccc12)Nc1ccc(Cl)cn1 [IC020772.1]
- log2FC (IC020772.1/DMSO) (ACD (Q96AP0-1)): −0.567
- log2FC (IC020772.1/DMSO) (AEN (Q8WTP8-2)): −0.5522
- log2FC (IC020772.1/DMSO) (ANTXR2 (P58335-4)): −0.5522
- log2FC (IC020772.1/DMSO) (APEX2 (Q9UBZ4)): −1.224
- log2FC (IC020772.1/DMSO) (APOB (P04114)): −0.5002
- log2FC (IC020772.1/DMSO) (APOL2 (Q9BQE5)): −0.5585
- log2FC (IC020772.1/DMSO) (ARSK (Q6UWY0)): −0.486
- log2FC (IC020772.1/DMSO) (ASPM (Q8IZT6-1)): −0.5416
- log2FC (IC020772.1/DMSO) (BICD1 (Q96G01-1)): −0.5479
- log2FC (IC020772.1/DMSO) (BTBD10 (Q9BSF8-2)): −0.6371
- log2FC (IC020772.1/DMSO) (C8orf59 (Q8N0T1-1)): −1.442
- log2FC (IC020772.1/DMSO) (C12orf45 (Q8N5I9)): −0.5479
- log2FC (IC020772.1/DMSO) (CCDC32 (Q9BV29-2)): −1.221
- log2FC (IC020772.1/DMSO) (CCDC61 (Q9Y6R9-1)): −0.567
- log2FC (IC020772.1/DMSO) (CCNB1 (P14635-1)): −0.5416
- log2FC (IC020772.1/DMSO) (CCND3 (P30281-1)): −0.5479
- log2FC (IC020772.1/DMSO) (CDC6 (Q99741)): −1.201
- log2FC (IC020772.1/DMSO) (CDC7 (O00311-1)): −0.5585
- log2FC (IC020772.1/DMSO) (CDCA7 (Q9BWT1-1)): −1.311
- log2FC (IC020772.1/DMSO) (CEP70 (Q8NHQ1-1)): −0.4941
- log2FC (IC020772.1/DMSO) (CHEK1 (O14757-1)): −0.5522
- log2FC (IC020772.1/DMSO) (CLIP1 (P30622-2)): −0.4982
- log2FC (IC020772.1/DMSO) (CLK2 (P49760-1)): −0.5395
- log2FC (IC020772.1/DMSO) (CNTLN (Q9NXG0-2)): −0.5585
- log2FC (IC020772.1/DMSO) (CSPP1 (Q1MSJ5-3)): −0.4961
- log2FC (IC020772.1/DMSO) (CTNNAL1 (Q9UBT7-1)): −0.5564
- log2FC (IC020772.1/DMSO) (Cllorf98 (E9PRG8)): −0.6304
- log2FC (IC020772.1/DMSO) (DDX28 (Q9NUL7)): −0.5437
- log2FC (IC020772.1/DMSO) (DHFR (P00374-1)): −0.4961
- log2FC (IC020772.1/DMSO) (DNAJB12 (Q9NXW2-1)): −0.5458
- log2FC (IC020772.1/DMSO) (DNAJB14 (Q8TBM8-1)): −0.5374
- log2FC (IC020772.1/DMSO) (DPH3 (Q96FX2-1)): −0.5564
- log2FC (IC020772.1/DMSO) (DSG2 (Q14126)): −0.5692
- log2FC (IC020772.1/DMSO) (E2F4 (Q16254)): −0.486
- log2FC (IC020772.1/DMSO) (ERICH5 (Q6P6B1-1)): −0.6371
- log2FC (IC020772.1/DMSO) (EVI2B (P34910-2)): −0.6282
- log2FC (IC020772.1/DMSO) (FAM177A1 (Q8N128-2)): −0.486
- log2FC (IC020772.1/DMSO) (FNDC3B (Q53EP0-1)): −0.6371
- log2FC (IC020772.1/DMSO) (FYTTD1 (Q96QD9-1)): −1.279
- log2FC (IC020772.1/DMSO) (GAB1 (Q13480-2)): −0.5564
- log2FC (IC020772.1/DMSO) (GOSR1 (O95249-1)): −0.4961
- log2FC (IC020772.1/DMSO) (GPT2 (Q8TD30-1)): −0.5564
- log2FC (IC020772.1/DMSO) (GTSE1 (Q9NYZ3)): −0.4941
- log2FC (IC020772.1/DMSO) (HAUS1 (Q96CS2-1)): −0.5043
- log2FC (IC020772.1/DMSO) (HLTF (Q14527-1)): −0.5543
- log2FC (IC020772.1/DMSO) (IL27RA (Q6UWB1)): −0.5458
- log2FC (IC020772.1/DMSO) (JADE2 (Q9NQC1-1)): −0.5395
- log2FC (IC020772.1/DMSO) (JMJD6 (Q6NYC1-3)): −0.5522
- log2FC (IC020772.1/DMSO) (JUP (P14923)): −0.484
- number of proteins significantly downregulated (log2FC < -0.3), destabilized proteins (KBM7 cells, 12 hours, ~10xEC50, 7,903 proteins quantified): 869
- number of downregulated proteins known to be implicated in KBM7 proliferation (essential for KBM7 viability) (KBM7 cells, 12 hours, essentiality from Hart et al. 2017): 147
- log2FC (IC020772.1/DMSO) (KBTBD7 (Q8WVZ9)): −0.5353
- log2FC (IC020772.1/DMSO) (LIMD2 (Q9BT23)): −0.6282
- log2FC (IC020772.1/DMSO) (MTR (Q99707-1)): −0.5395
- log2FC (IC020772.1/DMSO) (NARF (Q9UHQ1-2)): −0.488
- log2FC (IC020772.1/DMSO) (NCR3LG1 (Q68D85)): −0.488
- log2FC (IC020772.1/DMSO) (NDC80 (O14777)): −0.5585
- log2FC (IC020772.1/DMSO) (NKAPD1 (Q6ZUT1-2)): −0.488
- log2FC (IC020772.1/DMSO) (NKIRAS1 (Q9NYS0)): −0.5374
- log2FC (IC020772.1/DMSO) (NLK (Q9UBE8)): −0.4982
- log2FC (IC020772.1/DMSO) (NPAT (Q14207)): −0.6439
- log2FC (IC020772.1/DMSO) (NUF2 (Q9BZD4)): −0.6282
- log2FC (IC020772.1/DMSO) (NXF3 (Q9H4D5-1)): −0.5628
- log2FC (IC020772.1/DMSO) (PCLAF (Q15004-1)): −1.248
- log2FC (IC020772.1/DMSO) (PDCD2 (Q16342-1)): −0.5585
- log2FC (IC020772.1/DMSO) (PEX19 (P40855-1)): −0.488
- log2FC (IC020772.1/DMSO) (PHF8 (Q9UPP1-4)): −0.4961
- log2FC (IC020772.1/DMSO) (PIAS4 (Q8N2W9)): −0.4901
- log2FC (IC020772.1/DMSO) (PIBF1 (Q8WXW3-1)): −0.5002
- log2FC (IC020772.1/DMSO) (PIP5K1A (Q99755-3)): −0.5479
- log2FC (IC020772.1/DMSO) (PRR14L (Q5THK1-1)): −0.5458
- log2FC (IC020772.1/DMSO) (PUM2 (Q8TB72-1)): −0.5585
- log2FC (IC020772.1/DMSO) (RELT (Q969Z4)): −0.4901
- log2FC (IC020772.1/DMSO) (RIOK2 (Q9BVS4-1)): −0.6394
- log2FC (IC020772.1/DMSO) (RLIM (Q9NVW2-1)): −0.5458
- log2FC (IC020772.1/DMSO) (RNF149 (Q8NC42)): −0.55
- log2FC (IC020772.1/DMSO) (RNF219 (Q5W0B1)): −0.6506
- log2FC (IC020772.1/DMSO) (RTEL1 (Q9NZ71-2)): −0.5395
- log2FC (IC020772.1/DMSO) (SCAND1 (P57086)): −1.377
- log2FC (IC020772.1/DMSO) (SCARF1 (Q14162-1)): −1.297
- log2FC (IC020772.1/DMSO) (SDHAF3 (Q9NRP4)): −0.6349
- log2FC (IC020772.1/DMSO) (SIK2 (Q9H0K1)): −0.4961
- log2FC (IC020772.1/DMSO) (SLC19A1 (P41440-1)): −0.6326
- log2FC (IC020772.1/DMSO) (SLCO4A1 (Q96BD0-1)): −0.5043
- log2FC (IC020772.1/DMSO) (SNAP29 (O95721)): −0.6282
- log2FC (IC020772.1/DMSO) (SPHK2 (Q9NRA0-5)): −0.6439
- log2FC (IC020772.1/DMSO) (STXBP4 (Q6ZWJ1-1)): −0.5043
- log2FC (IC020772.1/DMSO) (TFAP4 (Q01664)): −0.5585
- log2FC (IC020772.1/DMSO) (TMED1 (Q13445)): −0.5395
- log2FC (IC020772.1/DMSO) (TMEM126B (Q8IUX1-1)): −0.4961
- log2FC (IC020772.1/DMSO) (TPK1 (Q9H3S4-1)): −0.5543
- log2FC (IC020772.1/DMSO) (TPT1 (P13693-1)): −0.4982
- log2FC (IC020772.1/DMSO) (TRMT44 (Q8IYL2-1)): −0.5416
- log2FC (IC020772.1/DMSO) (TRUB2 (O95900-1)): −0.6371
- log2FC (IC020772.1/DMSO) (TTC21B (Q7Z4L5-1)): −0.4901
- log2FC (IC020772.1/DMSO) (UBE2A (P49459-1)): −0.4921
- log2FC (IC020772.1/DMSO) (UBE2J2 (Q8N2K1-3)): −0.55
- log2FC (IC020772.1/DMSO) (UBL5 (Q9BZL1)): −0.5522
- log2FC (IC020772.1/DMSO) (UBXN2B (Q14CS0)): −0.5374
- log2FC (IC020772.1/DMSO) (USP38 (Q8NB14-1)): −0.4941
- log2FC (IC020772.1/DMSO) (ZFAND3 (Q9H8U3)): −0.5543
- log2FC (IC020772.1/DMSO) (ZNF182 (P17025-1)): −0.6529
